According to US20110152267A1, “Compositions and Methods for Treating Hyperproliferative Disorders” (Texas Tech University System, priority 2009, published 2011):

Tests used:
Assay type in all cases: cell-based, human
[1] = tested on: RPMI-8226 Multiple Myeloma cell line; test: DIMSCAN cytotoxicity, fenretinide + L-threo-sphinganines 3:1 (Example B2); settings: 96 h
Experimental: (§1) Cytotoxicity Assay—Once again, cytotoxicity is determined using the DIMSCAN assay system (R. Proffitt et al., Cytometry 24, 204-213 (1996); T. Frgala et al., Mol Cancer Ther. 6:886-97, 2007). The system employs digital imaging microscopy to quantify viable cells, which selectively accumulate fluorescein diacetate to become brightly fluorescent. The system is capable of measuring cytotoxicity over a 4-5 log dynamic range by quenching the residual fluorescence of dead and dying cells with eosin Y and quantifying the total fluorescence of viable cells using digital thresholding. Measured fluorescence is directly proportionate to the number of viable cells. A comparison of the total fluorescence of a drug-treated cell population to the fluorescence of a similar number of untreated cells yields a survival fraction. In brief, 2000 to 10,000 cells/well (depending on size and growth rates) are replicate plated into 60 wells of a 96-well tissue culture plate in 0.1 mL of whole medium and allowed to attach overnight. Drug(s) are then added in 0.05 mL of whole medium to the final concentrations indicated. Drugs (fenretinide, and various chain length L-threo-sphinganines) were tested both as single agents and in a 3:1 ratio of fenretinide:sphinganine. C18-L-threo-sphinganine, or “safingol,” was also tested and results shown for reference. There are 12 wells treated per drug concentration. Twelve wells receive drug vehicle-only to the appropriate final concentration and serve as controls for the plate. Cells are incubated for 96 hours at 37° C. in ambient air with 5% CO2. Fluorescein diacetate is then added to each well in 0.05 mL media to a final concentration of 8 microgram/mL. Cells are incubated for a further 15 minutes at 37° C. and 0.03 mL of 0.5% eosin Y is added to each well. Total fluorescence of viable cells is then measured by digital imaging microscopy. Results were graphed as the ratio of the fluoresecence of drug-treated wells to non-drug treated control wells (i.e., Survival Fraction). All tests were performed at least twice. Representative results are shown.
(§2) The Combination Index (CI) is a term to describe mathematical modeling of the pharmacologic effects on cytotoxicity (cell death) of two drugs in combination based. Cytotoxic “synergy” is defined as a cell death affect which is greater than would be expected from a simple product of the single agent cytotoxicities alone (i.e. an “additive” effect). By Chou-Talalay analysis, a CI<0.9 on a Fraction Affected (“Fa”, i.e. fraction of cells killed) indicates synergy, with smaller numbers indicating greater synergy; a CI of 0.9-1.1 signifies an additive or near-additive effect; and a CI>1.1 means the drug combination is antagonistic.
Fenretinide and L-threo-sphinganines tested in human Multiple Myeloma (a cancer of the blood and bone marrow) cell line, RPMI-8226.

[2] = tested on: U-266 Multiple Myeloma cell line; test: DIMSCAN cytotoxicity, fenretinide + L-threo-sphinganines 3:1 (Example B3); settings: 96 h
Experimental: as §1, §2
Fenretinide and L-threo-sphinganines tested in human Multiple Myeloma (a cancer of the blood and bone marrow) cell line, U-266.

[3] = tested on: U-118 Glioblastoma cell line; test: DIMSCAN cytotoxicity, fenretinide + L-threo-sphinganines 3:1 (Example B5); parameters: key to CI (Combination Index): CI<0.9 synergy, 0.9-1.1 additive, >1.1 antagonistic; settings: U-118 MG, 96 h
Experimental: as §1, §2
Fenretinide and L-threo-sphinganines tested in human Glioblastoma (brain cancer) cell line, U-118.

[4] = tested on: SJ-GBM2 Glioblastoma multiforme cell line; test: DIMSCAN cytotoxicity, fenretinide + L-threo-sphinganines 3:1 (Example B7); parameters: key to CI (Combination Index): Chou-Talalay CI: <0.9 synergy, 0.9-1.1 additive, >1.1 antagonism; settings: 96 h
Experimental: as §1, §2
Fenretinide and L-threo-sphinganines tested in human Glioblastoma multiforme (brain cancer) cell line, SJ-GBM2.

[5] = tested on: A-2058 melanoma cell line; test: DIMSCAN cytotoxicity, fenretinide + L-threo-sphinganines 3:1 (Example B11); settings: 96 h
Experimental: as §1, §2
Fenretinide and L-threo-sphinganines tested in human melanoma (skin cancer) cell line, A-2058.

[6] = tested on: A-549 lung adenocarcinoma cell line; test: DIMSCAN cytotoxicity, fenretinide + L-threo-sphinganines 3:1 (Example B13); settings: 96 h
Experimental: as §1, §2
Fenretinide and L-threo-sphinganines tested in human lung adenocarcinoma (lung cancer) cell line, A-549.

[7] = tested on: PC-3 prostate adenocarcinoma cell line; test: DIMSCAN cytotoxicity, fenretinide + L-threo-sphinganines 3:1 (Example B17)
Experimental: as §1, §2
Fenretinide and L-threo-sphinganines tested in human prostate adenocarcinoma (prostate cancer) cell line, PC-3.

[8] = tested on: PANC-1 pancreatic adenocarcinoma cell line; test: DIMSCAN cytotoxicity, fenretinide + L-threo-sphinganines 3:1 (Example B18)
Experimental: as §1, §2
Fenretinide and L-threo-sphinganines tested in human pancreatic adenocarcinoma (pancreas cancer) cell line, PANC-1.

[9] = 4-HPR 1.5 μM + L-threo-sphinganine 0.5 μM
[10] = 4-HPR 3 μM + L-threo-sphinganine 1 μM
[11] = 4-HPR 6 μM + L-threo-sphinganine 2 μM
[12] = 4-HPR 9 μM + L-threo-sphinganine 3 μM

CCCCCCCCCCCCCC[C@H](O)[C@@H](N)CO [C17, (2S,3S)-2-amino-1,3-heptadecanediol]
CI (Combination Index) [1, 9]: 1.12 | Fa (fraction affected) [1, 9]: 0.549 | CI (Combination Index) [1, 10]: 1.00 | Fa (fraction affected) [1, 10]: 0.859 | CI (Combination Index) [1, 11]: 0.43 | Fa (fraction affected) [1, 11]: 0.993 | CI (Combination Index) [1, 12]: >0.1 | Fa (fraction affected) [1, 12]: 1.000 | CI (Combination Index) [2, 9]: 1.3 | Fa (fraction affected) [2, 9]: 0.134 | CI (Combination Index) [2, 10]: 1.5 | Fa (fraction affected) [2, 10]: 0.35 | CI (Combination Index) [2, 11]: 0.9 | Fa (fraction affected) [2, 11]: 0.901 | CI (Combination Index) [2, 12]: 0.4 | Fa (fraction affected) [2, 12]: 0.991 | CI (Combination Index) [3, 9]: 1.7 | Fa (fraction affected) [3, 9]: 0.519 | CI (Combination Index) [3, 10]: 1.8 | Fa (fraction affected) [3, 10]: 0.791 | CI (Combination Index) [3, 11]: 1.5 | Fa (fraction affected) [3, 11]: 0.951 | CI (Combination Index) [3, 12]: 0.7 | Fa (fraction affected) [3, 12]: 0.995 | CI (Combination Index) [4, 9]: 0.5 | Fa (fraction affected) [4, 9]: 0.188 | CI (Combination Index) [4, 10]: 0.5 | Fa (fraction affected) [4, 10]: 0.796 | CI (Combination Index) [4, 11]: 0.7 | Fa (fraction affected) [4, 11]: 0.962 | CI (Combination Index) [4, 12]: 0.7 | Fa (fraction affected) [4, 12]: 0.998 | CI (Combination Index) [5, 9]: 0.9 | Fa (fraction affected) [5, 9]: 0.211 | CI (Combination Index) [5, 10]: 1.2 | Fa (fraction affected) [5, 10]: 0.359 | CI (Combination Index) [5, 11]: 1.4 | Fa (fraction affected) [5, 11]: 0.664 | CI (Combination Index) [5, 12]: 1.5 | Fa (fraction affected) [5, 12]: 0.849 | CI (Combination Index) [6, 9]: 1.6 | Fa (fraction affected) [6, 9]: 0.01 | CI (Combination Index) [6, 10]: 1.5 | Fa (fraction affected) [6, 10]: 0.010 | CI (Combination Index) [6, 11]: 1.0 | Fa (fraction affected) [6, 11]: 0.010 | CI (Combination Index) [6, 12]: 1.1 | Fa (fraction affected) [6, 12]: 0.010 | CI [7, 9]: 0.7 | Fa [7, 9]: 0.214 | CI [7, 10]: 0.9 | Fa [7, 10]: 0.338 | CI [7, 11]: 0.8 | Fa [7, 11]: 0.623 | CI [7, 12]: 0.5 | Fa [7, 12]: 0.862 | CI [8, 9]: 1.5 | Fa [8, 9]: 0.171 | CI [8, 10]: 1.7 | Fa [8, 10]: 0.311 | CI [8, 11]: 0.9 | Fa [8, 11]: 0.714 | CI [8, 12]: 0.1 | Fa [8, 12]: 0.990
